{"source": "ChEMBL document CHEMBL3091357", "about": "“Synthesis and biological evaluation of nimesulide based new class of triazole derivatives as potential PDE4B inhibitors against cancer cells” (Bioorg Med Chem Lett, 2013)", "key": {"[1]": {"molecular_target": "T1, 3',5'-cyclic-AMP phosphodiesterase 4B (Homo sapiens, UniProt Q07343)", "T1 sequence (Q07343 whole entry)": "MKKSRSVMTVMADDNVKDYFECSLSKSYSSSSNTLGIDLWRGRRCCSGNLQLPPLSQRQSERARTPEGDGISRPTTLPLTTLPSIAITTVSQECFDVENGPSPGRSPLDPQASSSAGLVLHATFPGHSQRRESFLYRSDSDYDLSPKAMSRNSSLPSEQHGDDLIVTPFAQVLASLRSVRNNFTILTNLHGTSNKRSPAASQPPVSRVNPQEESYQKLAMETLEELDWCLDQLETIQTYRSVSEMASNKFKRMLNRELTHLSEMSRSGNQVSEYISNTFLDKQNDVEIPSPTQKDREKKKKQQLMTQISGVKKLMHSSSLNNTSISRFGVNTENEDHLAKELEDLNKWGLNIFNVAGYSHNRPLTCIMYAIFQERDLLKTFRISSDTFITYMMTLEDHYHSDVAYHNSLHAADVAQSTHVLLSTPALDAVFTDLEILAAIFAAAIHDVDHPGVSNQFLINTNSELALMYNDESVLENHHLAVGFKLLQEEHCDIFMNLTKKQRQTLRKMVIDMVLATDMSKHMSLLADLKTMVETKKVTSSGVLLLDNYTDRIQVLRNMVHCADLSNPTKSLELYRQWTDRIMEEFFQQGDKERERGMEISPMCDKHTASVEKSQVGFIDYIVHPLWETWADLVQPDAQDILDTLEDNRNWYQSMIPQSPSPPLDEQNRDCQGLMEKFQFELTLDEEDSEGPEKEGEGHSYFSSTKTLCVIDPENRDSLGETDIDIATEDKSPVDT", "test": "Inhibition of recombinant His-tagged PDE4B1 (unknown origin) expressed in insect Sf9 cells using cAMP as substrate at 30 uM preincubated for 15 mins followed by substrate addition measured after 1 hr by luminescence assay relative to control"}, "[2]": {"tested_on": "HCT-15", "test": "Cytotoxicity against human HCT15 cells assessed as cell death after 48 hrs by MTT assay", "type": "functional, cell-based", "conditions": "HCT-15, 48 h"}, "[3]": {"tested_on": "HCT-15", "test": "Cytotoxicity against human HCT15 cells assessed as cell death at 5 ug/mL after 48 hrs by MTT assay relative to control", "type": "functional", "conditions": "HCT-15, 48 h"}, "[4]": {"tested_on": "HCT-15", "test": "Cytotoxicity against human HCT15 cells assessed as cell death at 25 ug/mL after 48 hrs by MTT assay relative to control", "type": "functional", "conditions": "HCT-15, 48 h"}, "[5]": {"tested_on": "HCT-15", "test": "Cytotoxicity against human HCT15 cells assessed as cell death at 15 ug/mL after 48 hrs by MTT assay relative to control", "type": "functional", "conditions": "HCT-15, 48 h"}, "[6]": {"tested_on": "HCT-15", "test": "Cytotoxicity against human HCT15 cells assessed as cell death at 20 ug/mL after 48 hrs by MTT assay relative to control", "type": "functional", "conditions": "HCT-15, 48 h"}, "[7]": {"tested_on": "HCT-15", "test": "Cytotoxicity against human HCT15 cells assessed as cell death at 10 ug/mL after 48 hrs by MTT assay relative to control", "type": "functional", "conditions": "HCT-15, 48 h"}, "[8]": {"molecular_target": "T1, 3',5'-cyclic-AMP phosphodiesterase 4B", "test": "Inhibition of recombinant His-tagged PDE4B1 (unknown origin) expressed in insect Sf9 cells using cAMP as substrate preincubated for 15 mins followed by substrate addition measured after 1 hr by luminescence assay"}}, "note": "Activity calls are given as the source filed them. The rule behind the calls is not given here."}
{"smiles": "CS(=O)(=O)Nc1ccc(NC(=O)Cn2cc(COc3ccc(Cl)cc3)nn2)cc1Oc1ccccc1", "values": [{"measurement": "inhibition", "setting": "[1]", "value": 51.3, "unit": "%"}]}
{"smiles": "CS(=O)(=O)Nc1ccc(NC(=O)Cn2cc(COc3ccccc3)nn2)cc1Oc1ccccc1", "values": [{"measurement": "inhibition", "setting": "[1]", "value": 51.2, "unit": "%"}]}
{"smiles": "Cc1cc(OCc2cn(CC(=O)Nc3ccc(NS(C)(=O)=O)c(Oc4ccccc4)c3)nn2)ccc1Cl", "values": [{"measurement": "inhibition", "setting": "[1]", "value": 32.9, "unit": "%"}]}
{"smiles": "CS(=O)(=O)Nc1ccc(NC(=O)Cn2cc(COc3ccccc3Cl)nn2)cc1Oc1ccccc1", "values": [{"measurement": "inhibition", "setting": "[1]", "value": 42.5, "unit": "%"}]}
{"smiles": "COc1ccc(C2CNC(=O)C2)cc1OC1CCCC1", "note": "(stereo unspecified)", "values": [{"measurement": "inhibition", "setting": "[1]", "value": 94.1, "unit": "%"}]}
{"smiles": "CS(=O)(=O)Nc1ccc(NC(=O)Cn2cc(COc3ccc([N+](=O)[O-])cc3)nn2)cc1Oc1ccccc1", "values": [{"measurement": "inhibition", "setting": "[1]", "value": 47.1, "unit": "%"}]}
{"smiles": "COc1cccc2c1C(=O)c1c(O)c3c(c(O)c1C2=O)C[C@@](O)(C(=O)CO)C[C@@H]3O[C@H]1C[C@H](N)[C@H](O)[C@H](C)O1", "note": "[DOXORUBICIN]", "values": [{"measurement": "IC50", "setting": "[2]", "value": 0.09, "unit": "µM"}]}
{"smiles": "Cc1ccc(-c2cn(CC(=O)Nc3ccc(NS(C)(=O)=O)c(Oc4ccccc4)c3)nn2)cc1", "values": [{"measurement": "mortality at 5 µg/mL", "setting": "[3]", "value": 37, "unit": "%"}, {"measurement": "mortality at 25 µg/mL", "setting": "[4]", "value": 53, "unit": "%"}, {"measurement": "mortality at 15 µg/mL", "setting": "[5]", "value": 45.6, "unit": "%"}, {"measurement": "IC50", "setting": "[2]", "value": 21, "unit": "mg/L"}, {"measurement": "inhibition", "setting": "[1]", "value": 36, "unit": "%"}, {"measurement": "mortality at 20 µg/mL", "setting": "[6]", "value": 49.6, "unit": "%"}, {"measurement": "mortality at 10 µg/mL", "setting": "[7]", "value": 40.2, "unit": "%"}]}
{"smiles": "CS(=O)(=O)Nc1ccc([N+](=O)[O-])cc1Oc1ccccc1", "values": [{"measurement": "inhibition", "setting": "[1]", "value": "inactive"}]}
{"smiles": "CS(=O)(=O)Nc1ccc(NC(=O)Cn2cc(-c3ccccc3)nn2)cc1Oc1ccccc1", "values": [{"measurement": "mortality at 5 µg/mL", "setting": "[3]", "value": 10.8, "unit": "%"}, {"measurement": "mortality at 25 µg/mL", "setting": "[4]", "value": 60.1, "unit": "%"}, {"measurement": "IC50", "setting": "[8]", "value": 4.92, "unit": "µM"}, {"measurement": "inhibition", "setting": "[8]", "value": "Dose-dependent effect"}, {"measurement": "mortality at 15 µg/mL", "setting": "[5]", "value": 31, "unit": "%"}, {"measurement": "IC50", "setting": "[2]", "value": 22.4, "unit": "mg/L"}, {"measurement": "inhibition", "setting": "[1]", "value": 64.1, "unit": "%"}, {"measurement": "mortality at 20 µg/mL", "setting": "[6]", "value": 42.7, "unit": "%"}, {"measurement": "mortality at 10 µg/mL", "setting": "[7]", "value": 15.2, "unit": "%"}]}
{"smiles": "CS(=O)(=O)Nc1ccc(NC(=O)Cn2cc(COc3ccc4ccccc4c3)nn2)cc1Oc1ccccc1", "values": [{"measurement": "mortality at 5 µg/mL", "setting": "[3]", "value": 10.6, "unit": "%"}, {"measurement": "mortality at 25 µg/mL", "setting": "[4]", "value": 33.6, "unit": "%"}, {"measurement": "mortality at 15 µg/mL", "setting": "[5]", "value": 21.1, "unit": "%"}, {"measurement": "inhibition", "setting": "[1]", "value": 59.7, "unit": "%"}, {"measurement": "mortality at 20 µg/mL", "setting": "[6]", "value": 25.3, "unit": "%"}, {"measurement": "mortality at 10 µg/mL", "setting": "[7]", "value": 14.3, "unit": "%"}]}
{"smiles": "Cc1ccc(OCc2cn(CC(=O)Nc3ccc(NS(C)(=O)=O)c(Oc4ccccc4)c3)nn2)cc1", "values": [{"measurement": "inhibition", "setting": "[1]", "value": 56.7, "unit": "%"}]}
